Values quoted from earlier work, collected in EP3957364A1, “A BINDING MOLECULE SPECIFICALLY BINDING TO HUMAN CD4 FOR USE IN THE TREATMENT OF PULMONARY DISEASES” (Fraunhofer-Gesellschaft zur Förderung der angewandten …, priority 2020, dated 2022).

Biological target: CD4 (Homo sapiens, UniProt P01730)
Conditions: reported, no source named

## TbYICbEbVEDQKAcEE
  inhibition of CD4 binding of gp120 and MAX.16H5 IgG1 (or 16H5.chimlgG4): inhibit CD4 binding of both gp120 and MAX.16H5 IgG1
